Tested on: Reticulitermes speratus workers (worker termites)
Experiment: egg recognition activity: conveyance of coated mimetic eggs (glass beads) into the egg mass in a petri dish
Format: in vivo
Conditions: lysozyme samples tested on termites
Method: Egg recognition activities of a termite egg extract, lysozyme purified from the termite egg extract, a termite egg extract degraded by proteinase, egg white lysozyme, cellulase, a mixture of egg white lysozyme and cellulase, and 30% glycerin aqueous solution as a control were investigated by using Reticulitermes speratus workers (worker termites).
Each test samples was prepared as follows.
800 μL of ultrapure water was added to 400 mg of Reticulitermes speratus eggs in an Eppendorf tube, and homogenized, and subjected to ultrasonic treatment for 5 minutes, and centrifugation was performed at 15,000 rpm for 30 minutes. The supernatant was lyophilized, and 5.0 mg of the lyophilized powder was dissolved in 100 μL of 30% glycerin aqueous solution (termite egg extract). The termite egg extract prepared in the same manner as described above was purified by BioRex 70 (BioRad Laboratories, CA, USA) cation-exchange resin, and further, lysozyme fractions were isolated by Q-1 column chromatography (BioRad Laboratories, CA, USA) and Methyl HIC column chromatography (BioRad Laboratories, CA, USA), and 1.0 mg of lyophilized powder thereof was dissolved in 20 μL of 30% glycerin aqueous solution (lysozyme isolated from termite egg extract). […]

**Q.** “lysozyme derived from chicken egg white: egg white lysozyme (SIGMA) dissolved in 30% glycerin aqueous solution” was tested. Which “egg recognition activity of termites” value did it give?
**A.** The value was “high activity”.

Source: US8691218B2, “Vermin extermination using lysozyme, salt or biological fragment thereof, or lysozyme-related peptide as an egg recognition pheromone” (National University Corporation Okayama University, priority 2007, dated 2014)
